Tests used:
[1] = Paal-Knorr-like closure of a side-chain 1,4-diketone (DOP, unmasked from 5-substituted furan in TFA/m-cresol 9:1) with a side-chain alkylhydrazine (Nu1), then air oxidation to a pyridazinium staple; crude redissolved in mQ water, pH adjusted to ~7.5; conditions: the molecule shown is the open-chain precursor, pH ~7.5, 5.0 mM
[2] = Paal-Knorr pyrrole formation between a side-chain 1,4-diketone (DOP1, unmasked from 5-methylfuran in TFA/m-cresol 9:1) and a side-chain hydrazide (Nu2) or aminooxy group (Nu5); crude redissolved in mQ water; conditions: the molecule shown is the open-chain precursor, pH ~2.5, 5.0 mM

CC[C@H](C)[C@H](NC(=O)[C@H](CCC(=O)O)NC(=O)[C@H](CCCNC(=N)N)NC(=O)CNC(=O)[C@H](CCCCN)NC(=O)[C@H](CC(C)C)NC(=O)[C@H](Cc1c[nH]cn1)NC(=O)CNC(=O)[C@@H]1CCCN1C(C)=O)C(=O)NCC(=O)N[C@@H](CC(C)C)C(=O)N[C@@H](Cc1c[nH]c2ccccc12)C(=O)N[C@@H](Cc1ccc(O)cc1)C(=O)N[C@@H](C)C(=O)N[C@@H](CCCNC(=O)CNN)C(=O)N[C@@H](CCCCN)C(=O)N[C@@H](CCC(N)=O)C(=O)NCC(=O)N[C@@H](CCCNC(=O)CCC(=O)CCC(=O)c1ccc(OC)cc1)C(=O)N[C@@H](CCCCN)C(=O)N[C@@H](CC(N)=O)C(=O)N[C@@H](CCCCN)C(N)=O
ring closure, overall yield ([1]; 29-membered ring): 10.9%

CC(=O)CCC(=O)CCC(=O)NCCC[C@H](NC(=O)[C@H](Cc1ccc(O)cc1)NC(C)=O)C(=O)N[C@@H](CCCNC(=N)N)C(=O)NCC(=O)N[C@@H](CC(=O)O)C(=O)N[C@@H](CCCNC(=O)CNN)C(=O)N[C@@H](CO)C(=O)N[C@@H](Cc1c[nH]c2ccccc12)C(N)=O [Ac-Y-Orn(4,7-dioxooctanoyl)*-R-G-D-Orn(COCH2NHNH2)*-S-W-NH2]
ring closure, overall yield ([1]; 29-membered ring): 16.8%

CC(=O)CCC(=O)CCC(=O)NCCC[C@H](NC(C)=O)C(=O)N[C@@H](Cc1c[nH]c2ccccc12)C(=O)N[C@@H](CCCNC(=N)N)C(=O)NCC(=O)N[C@@H](CC(=O)O)C(=O)N[C@@H](Cc1ccc(O)cc1)C(=O)N[C@@H](CO)C(=O)N[C@@H](CCCNC(=O)CCC(=O)NN)C(N)=O
ring closure, overall yield ([2]; 40-membered ring): 4.3%

CC[C@H](C)[C@H](NC(=O)[C@H](CCCNC(=O)CNN)NC(=O)c1ccc(NC(C)=O)cc1)C(=O)N[C@@H](C)C(=O)N[C@@H](C)C(=O)N[C@@H](CC(C)C)C(=O)N[C@@H](CCCCN)C(=O)N[C@@H](CCC(=O)O)C(=O)N[C@@H](CCCCN)C(=O)N[C@H](C(=O)N[C@@H](CCCNC(=O)CNN)C(=O)N[C@@H](C)C(=O)N[C@@H](CC(C)C)C(=O)N[C@@H](CCCCN)C(=O)N[C@@H](CCCNC(=O)CCC(=O)CCC(C)=O)C(=O)N[C@@H](CCCCN)C(=O)N[C@H](C(=O)N[C@@H](C)C(=O)N[C@@H](C)C(=O)N[C@@H](CC(C)C)C(=O)N[C@@H](CCCCN)C(=O)N[C@@H](CCC(=O)O)C(N)=O)[C@@H](C)CC)[C@@H](C)CC
ring closure, overall yield ([1]; 29-membered ring): 6.2%

CC[C@H](C)[C@H](NC(=O)[C@H](CCC(=O)O)NC(=O)[C@H](CCCNC(=N)N)NC(=O)CNC(=O)[C@H](CCCCN)NC(=O)[C@H](CC(C)C)NC(=O)[C@H](Cc1c[nH]cn1)NC(=O)CNC(=O)[C@@H]1CCCN1C(C)=O)C(=O)NCC(=O)N[C@@H](CC(C)C)C(=O)N[C@@H](Cc1c[nH]c2ccccc12)C(=O)N[C@@H](Cc1ccc(O)cc1)C(=O)N[C@@H](C)C(=O)N[C@@H](CCCNC(=O)CON)C(=O)N[C@@H](CCCCN)C(=O)N[C@@H](CCC(N)=O)C(=O)NCC(=O)N[C@@H](CCCNC(=O)CCC(=O)CCC(C)=O)C(=O)N[C@@H](CCCCN)C(=O)N[C@@H](CC(N)=O)C(=O)N[C@@H](CCCCN)C(N)=O
ring closure, overall yield ([2]; 29-membered ring): 3.48%

CC(=O)CCC(=O)CCC(=O)NCCC[C@H](NC(C)=O)C(=O)N[C@@H](Cc1c[nH]c2ccccc12)C(=O)N[C@@H](CCCNC(=N)N)C(=O)NCC(=O)N[C@@H](CC(=O)O)C(=O)N[C@@H](Cc1ccc(O)cc1)C(=O)N[C@@H](CO)C(=O)N[C@@H](CCCNC(=O)CNN)C(N)=O [Ac-Orn(4,7-dioxooctanoyl)*-W-R-G-D-Y-S-Orn(COCH2NHNH2)*-NH2]
ring closure, overall yield ([1]; 38-membered ring): 16.7%

CC[C@H](C)[C@H](NC(=O)[C@H](CCCNC(=O)CCC(=O)CCC(C)=O)NC(=O)[C@H](CCCNC(=N)N)NC(=O)CNC(=O)[C@H](CCCCN)NC(=O)[C@H](CC(C)C)NC(=O)[C@H](Cc1c[nH]cn1)NC(=O)CNC(=O)[C@@H]1CCCN1C(C)=O)C(=O)NCC(=O)N[C@@H](CC(C)C)C(=O)N[C@@H](Cc1c[nH]c2ccccc12)C(=O)N[C@@H](Cc1ccc(O)cc1)C(=O)N[C@@H](C)C(=O)N[C@@H](CCCNC(=O)CON)C(=O)N[C@@H](CCCCN)C(=O)N[C@@H](CCC(N)=O)C(=O)NCC(=O)N[C@@H](CCC(N)=O)C(=O)N[C@@H](CCCCN)C(=O)N[C@@H](CC(N)=O)C(=O)N[C@@H](CCCCN)C(N)=O
ring closure, overall yield ([2]; 38-membered ring): 13.9%

CC(=O)CCC(=O)CCC(=O)NCCC[C@H](NC(=O)[C@H](Cc1ccc(O)cc1)NC(C)=O)C(=O)N[C@@H](CCCNC(=N)N)C(=O)NCC(=O)N[C@@H](CC(=O)O)C(=O)N[C@@H](CCCNC(=O)CON)C(=O)N[C@@H](CO)C(=O)N[C@@H](Cc1c[nH]c2ccccc12)C(N)=O [Ac-Y-Orn(4,7-dioxooctanoyl)*-R-G-D-Orn(COCH2ONH2)*-S-W-NH2]
ring closure, overall yield ([2]; 29-membered ring): 8.1%

CC[C@H](C)[C@H](NC(=O)[C@H](CCCNC(=O)CCC(=O)CCC(C)=O)NC(=O)[C@H](CCCNC(=N)N)NC(=O)CNC(=O)[C@H](CCCCN)NC(=O)[C@H](CC(C)C)NC(=O)[C@H](Cc1c[nH]cn1)NC(=O)CNC(=O)[C@@H]1CCCN1C(C)=O)C(=O)NCC(=O)N[C@@H](CC(C)C)C(=O)N[C@@H](Cc1c[nH]c2ccccc12)C(=O)N[C@@H](Cc1ccc(O)cc1)C(=O)N[C@@H](C)C(=O)N[C@@H](CCCNC(=O)CNN)C(=O)N[C@@H](CCCCN)C(=O)N[C@@H](CCC(N)=O)C(=O)NCC(=O)N[C@@H](CCC(N)=O)C(=O)N[C@@H](CCCCN)C(=O)N[C@@H](CC(N)=O)C(=O)N[C@@H](CCCCN)C(N)=O
ring closure, overall yield ([1]; 38-membered ring): 16.8%

CC[C@H](C)[C@H](NC(=O)[C@H](CCC(=O)O)NC(=O)[C@H](CCCNC(=N)N)NC(=O)CNC(=O)[C@H](CCCCN)NC(=O)[C@H](CC(C)C)NC(=O)[C@H](Cc1c[nH]cn1)NC(=O)CNC(=O)[C@@H]1CCCN1C(C)=O)C(=O)NCC(=O)N[C@@H](CC(C)C)C(=O)N[C@@H](Cc1c[nH]c2ccccc12)C(=O)N[C@@H](Cc1ccc(O)cc1)C(=O)N[C@@H](C)C(=O)N[C@@H](CCCNC(=O)CNN)C(=O)N[C@@H](CCCCN)C(=O)N[C@@H](CCC(N)=O)C(=O)NCC(=O)N[C@@H](CCCNC(=O)CCC(=O)CCC(C)=O)C(=O)N[C@@H](CCCCN)C(=O)N[C@@H](CC(N)=O)C(=O)N[C@@H](CCCCN)C(N)=O
ring closure, overall yield ([1]; 29-membered ring): 18.2%

COc1ccc(C(=O)CCC(=O)CCC(=O)NCCC[C@H](NC(=O)[C@H](Cc2ccc(O)cc2)NC(C)=O)C(=O)N[C@@H](CCCNC(=N)N)C(=O)NCC(=O)N[C@@H](CC(=O)O)C(=O)N[C@@H](CCCNC(=O)CNN)C(=O)N[C@@H](CO)C(=O)N[C@@H](Cc2c[nH]c3ccccc23)C(N)=O)cc1
ring closure, overall yield ([1]; 29-membered ring): 13.5%

CC[C@H](C)[C@H](NC(=O)[C@H](CCCNC(=O)CCC(=O)CCC(=O)c1ccc(OC)cc1)NC(=O)[C@H](CCCNC(=N)N)NC(=O)CNC(=O)[C@H](CCCCN)NC(=O)[C@H](CC(C)C)NC(=O)[C@H](Cc1c[nH]cn1)NC(=O)CNC(=O)[C@@H]1CCCN1C(C)=O)C(=O)NCC(=O)N[C@@H](CC(C)C)C(=O)N[C@@H](Cc1c[nH]c2ccccc12)C(=O)N[C@@H](Cc1ccc(O)cc1)C(=O)N[C@@H](C)C(=O)N[C@@H](CCCNC(=O)CNN)C(=O)N[C@@H](CCCCN)C(=O)N[C@@H](CCC(N)=O)C(=O)NCC(=O)N[C@@H](CCC(N)=O)C(=O)N[C@@H](CCCCN)C(=O)N[C@@H](CC(N)=O)C(=O)N[C@@H](CCCCN)C(N)=O
ring closure, overall yield ([1]; 38-membered ring): 17.1%

CC[C@H](C)[C@H](NC(=O)[C@H](CCCNC(=O)CNN)NC(=O)c1ccc(NC(C)=O)cc1)C(=O)N[C@@H](C)C(=O)N[C@@H](C)C(=O)N[C@@H](CC(C)C)C(=O)N[C@@H](CCCCN)C(=O)N[C@@H](CCC(=O)O)C(=O)N[C@@H](CCCCN)C(=O)N[C@H](C(=O)N[C@@H](CCCNC(=O)CNN)C(=O)N[C@@H](C)C(=O)N[C@@H](CC(C)C)C(=O)N[C@@H](CCCCN)C(=O)N[C@@H](CCC(=O)O)C(=O)N[C@@H](CCCCN)C(=O)N[C@H](C(=O)N[C@@H](CCCNC(=O)CCC(=O)CCC(C)=O)C(=O)N[C@@H](C)C(=O)N[C@@H](CC(C)C)C(=O)N[C@@H](CCCCN)C(=O)N[C@@H](CCC(=O)O)C(N)=O)[C@@H](C)CC)[C@@H](C)CC
ring closure, overall yield ([1]; 38-membered ring): 6.9%

CC(=O)CCC(=O)CCC(=O)NCCC[C@H](NC(=O)[C@H](Cc1ccc(O)cc1)NC(C)=O)C(=O)N[C@@H](CCCNC(=N)N)C(=O)NCC(=O)N[C@@H](CC(=O)O)C(=O)N[C@@H](CCCNC(=O)CCC(=O)NN)C(=O)N[C@@H](CO)C(=O)N[C@@H](Cc1c[nH]c2ccccc12)C(N)=O
ring closure, overall yield ([2]; 31-membered ring): 2.3%

CC[C@H](C)[C@H](NC(=O)[C@H](CCCNC(=O)CCC(=O)CCC(C)=O)NC(=O)[C@H](CCCNC(=N)N)NC(=O)CNC(=O)[C@H](CCCCN)NC(=O)[C@H](CC(C)C)NC(=O)[C@H](Cc1c[nH]cn1)NC(=O)CNC(=O)[C@@H]1CCCN1C(C)=O)C(=O)NCC(=O)N[C@@H](CC(C)C)C(=O)N[C@@H](Cc1c[nH]c2ccccc12)C(=O)N[C@@H](Cc1ccc(O)cc1)C(=O)N[C@@H](C)C(=O)N[C@@H](CCCNC(=O)CCC(=O)NN)C(=O)N[C@@H](CCCCN)C(=O)N[C@@H](CCC(N)=O)C(=O)NCC(=O)N[C@@H](CCC(N)=O)C(=O)N[C@@H](CCCCN)C(=O)N[C@@H](CC(N)=O)C(=O)N[C@@H](CCCCN)C(N)=O
ring closure, overall yield ([2]; 40-membered ring): 12.6%

CC[C@H](C)[C@H](NC(=O)[C@H](CCC(=O)O)NC(=O)[C@H](CCCNC(=N)N)NC(=O)CNC(=O)[C@H](CCCCN)NC(=O)[C@H](CC(C)C)NC(=O)[C@H](Cc1c[nH]cn1)NC(=O)CNC(=O)[C@@H]1CCCN1C(C)=O)C(=O)NCC(=O)N[C@@H](CC(C)C)C(=O)N[C@@H](Cc1c[nH]c2ccccc12)C(=O)N[C@@H](Cc1ccc(O)cc1)C(=O)N[C@@H](C)C(=O)N[C@@H](CCCNC(=O)CCC(=O)NN)C(=O)N[C@@H](CCCCN)C(=O)N[C@@H](CCC(N)=O)C(=O)NCC(=O)N[C@@H](CCCNC(=O)CCC(=O)CCC(C)=O)C(=O)N[C@@H](CCCCN)C(=O)N[C@@H](CC(N)=O)C(=O)N[C@@H](CCCCN)C(N)=O
ring closure, overall yield ([2]; 31-membered ring): 8.24%

COc1ccc(C(=O)CCC(=O)CCC(=O)NCCC[C@H](NC(C)=O)C(=O)N[C@@H](Cc2c[nH]c3ccccc23)C(=O)N[C@@H](CCCNC(=N)N)C(=O)NCC(=O)N[C@@H](CC(=O)O)C(=O)N[C@@H](Cc2ccc(O)cc2)C(=O)N[C@@H](CO)C(=O)N[C@@H](CCCNC(=O)CNN)C(N)=O)cc1
ring closure, overall yield ([1]; 38-membered ring): 13.9%

Reference: article PMC10510716
